The test system of one series is PC3-MM2 cells. In words: Immunofluorescence / confocal microscopy analysis of PC3-MM2 cells. The series is classed as cell-based. Particulars: FIG. 2B; for F-actin localization: confocal microscopy, versus DMSO treated cells; for integrin α2 localization: immunofluorescence, versus untreated cells. Here is the method:
(§1) Chemicals and Cell culture. Compounds were dissolved in DMSO and stored at −20° C. until use. The PC3-MM2 and MDA-MB-231 cells were maintained in DMEM (Cellgro) media supplemented with streptomycin (500 μg/mL), penicillin (100 units/mL) and 10% FBS at 37° C. and 5% CO2.
(§2) Antibodies. The following antibodies were used for western blotting and/or immunofluorescence: goat anti-integrin α L #sc6609, rabbit anti-SYNE2 #sc99066, and rabbit anti-actin #sc1616-R (Santa Cruz Biotech-nology, Santa Cruz, Calif.); rabbit anti-Integrin α 2 #ab181548, rabbit anti-VAMP2 #ab3347 (Abcam, Cambridge, Mass.); Phalloidin 647 #A22287 (Invitrogen, Carlsbad Calif.); rabbit anti-Rab10 #4262S (Cell Signaling Technology, Danvers, Mass.).
Immunofluorescence Analysis. For cell imaging, 1 μm-Slide 8 well ibidiTreat IBIDI glass slides were used. PC3-MM2 cells were fixed with freshly made 4% (w/w) paraformaldehyde in PBS for 15 min, permeabilized with 0.1% (w/w) Tween 20 in PBS for 5 min and quenched with 0.1% (w/w) sodium borohydride for 5 min. The sections were blocked with 3% (w/w) BSA in PBS for 1 h and incubated with the primary antibody at a 1:100 concentration in 1% BSA in PBS overnight, prior to incubation with secondary antibody conjugated with Alexa Fluor 568 for 3 h. The sections were counterstained with DAPI and/or with Phalloidin to visualize DNA and filamentous actin (F-actin), respectively. The wells were washed three times with PBS after each step.
Confocal images were acquired using a custom epifluorescent/confocal microscope composed of the following components: an Olympus IX81 inverted spinning disc confocal microscope base (Olympus America, Center Valley, Pa.), a Prior microscope stage for automated image acquisition (Prior Scientific, Rockland, Mass.), an Olympus 60X oil Immersion objective for confocal images (Olympus) and a Hamamatsu Electron Multiplying Charge-Coupled Device (EMCCD) camera (Hamamatsu, Hamamatsu, Shizuoka Prefecture, Japan). Images were captured using the SlideBook acquisition and analysis software, (Intelligent Imaging Innovations (3i), Denver, Colo.).
Images were collected with 8-10 image stacks with a 0.3 micron step size through the cells. Images were processed using Image J software (NIH).

Series [1] is described as follows: Anti-proliferation assay (MTS/PMS), PC-3 MM-2. The series is classed as cell-based. The conditions noted are these: human, PC-3 MM-2 cells, PC-3 MM-2, 25 μM. On the procedure:
(§3) Anti-proliferation Assays. Cells were seeded (2000/well, 100 μL) in 96-well plates and incubated overnight. Following incubation, compounds with varying concentrations in DMSO (1% DMSO final concentration) were added and cells were returned to the incubator for 72 h. After 72 h, the cell viability was determined using an MTS/PMS cell proliferation kit (Promega) per the manufacturer's instructions. Absorption value from 1% DMSO wells were used as 100% proliferation, and values were adjusted accordingly.

Series [2] in a line: Anti-proliferation assay (MTS/PMS), MDA-MB-231. The class given is cell-based. Particulars: human, MDA-MB-231 cells, MDA-MB-231, 25 μM. Here is the method: as §3
For another series, the system named is PC-3 MM-2 cells. Briefly: Wound healing scratch assay, PC-3 MM-2. The conditions noted are these: 5 μM ('at 10 μM and 5 μM respectively'), 0, 16, 24 h, FIG. 3B. The class given is cell-based. On the procedure:
as §1
(§4) Wound Healing Scratch Assay. The cells were seeded in a 24-well plate in complete media and allowed to form a monolayer. After monolayer formation, a scratch was introduced with a sterile 0.1-10 μl pipet tip. The media was replaced with fresh media in the absence or presence of the indicated drug concentrations. Photomicrographs were taken at different time points with an Olympus IX71 microscope using a 10x air lens and CellSans Dimensions software. The images were processed with Image J software.

Series [3] relates to integrin α2, integrin αL, Syne2, VAMP2, Rab10 in PC3-MM2 cells. Briefly: Cell fractionation and Western blot analysis of PC3-MM2 cells. The series is classed as cell-based. The conditions noted are these: 30 μM, 24 h, cytoplasmic (Cyto) fraction, compared to DMSO, FIG. 2A. On the procedure: as §1, §2
Cell fractionation and Western Blot Analysis. […] After sedimenting the cell debris, the protein concentration of each lysate was measured in quadruplicate using the BCA protein assay and bovine serum albumin as the standard. The coefficient of variation was determined for each set of quadruplicate measures and if the variability exceeded 5%, the protein assay was repeated for that set of samples. […]
A general note: Immunoblotting shows a protein as a band on a membrane.

The next series deals with Hsp90α (Homo sapiens (Human), UniProt P07900). Briefly: Fluorescence polarization (FP) assay, Hsp90α. The series is classed as binding. Here is the method:
(§5) Fluorescence Polarization. Assay buffer (25 μL, 20 mM HEPES pH 7.3, 50 mM KCl, 5 mM MgCl2, 1 mM DTT, 20 mM Na2MoO4, 0.01% NP-40, and 0.5 mg/mL BGG) was added to 96-well plate (black well, black bottom) followed by the desired compound at the indicated final concentrations in DMSO (1% DMSO final concentration). […] Plates were incubated with rocking for 5 h at 4° C. […] Percent FITC-GDA bound was determined by using the DMSO millipolarization unit (mP) as the 100% bound value and the 0% for FITC-GDA. Kd values were calculated from separate experiments performed in triplicate using GraphPad Prism.

Another series relates to MDA-MB-231 cells. Briefly: Wound healing scratch assay, MDA-MB-231. The class given is cell-based. The conditions noted are these: 10 μM ('at 10 μM and 5 μM respectively'), 0, 16, 24 h, FIG. 3A. On the procedure: as §1, §4
For series [4], the target named is Grp94 (recombinant cGrp94) (Canis lupus familiaris (Dog) (Canis familiaris), UniProt P41148). In words: Fluorescence polarization (FP) assay, cGrp94 with FITC-GDA. The class given is binding. Here is the method: as §5
Chain of Grp94 (recombinant cGrp94) (P41148 22-804): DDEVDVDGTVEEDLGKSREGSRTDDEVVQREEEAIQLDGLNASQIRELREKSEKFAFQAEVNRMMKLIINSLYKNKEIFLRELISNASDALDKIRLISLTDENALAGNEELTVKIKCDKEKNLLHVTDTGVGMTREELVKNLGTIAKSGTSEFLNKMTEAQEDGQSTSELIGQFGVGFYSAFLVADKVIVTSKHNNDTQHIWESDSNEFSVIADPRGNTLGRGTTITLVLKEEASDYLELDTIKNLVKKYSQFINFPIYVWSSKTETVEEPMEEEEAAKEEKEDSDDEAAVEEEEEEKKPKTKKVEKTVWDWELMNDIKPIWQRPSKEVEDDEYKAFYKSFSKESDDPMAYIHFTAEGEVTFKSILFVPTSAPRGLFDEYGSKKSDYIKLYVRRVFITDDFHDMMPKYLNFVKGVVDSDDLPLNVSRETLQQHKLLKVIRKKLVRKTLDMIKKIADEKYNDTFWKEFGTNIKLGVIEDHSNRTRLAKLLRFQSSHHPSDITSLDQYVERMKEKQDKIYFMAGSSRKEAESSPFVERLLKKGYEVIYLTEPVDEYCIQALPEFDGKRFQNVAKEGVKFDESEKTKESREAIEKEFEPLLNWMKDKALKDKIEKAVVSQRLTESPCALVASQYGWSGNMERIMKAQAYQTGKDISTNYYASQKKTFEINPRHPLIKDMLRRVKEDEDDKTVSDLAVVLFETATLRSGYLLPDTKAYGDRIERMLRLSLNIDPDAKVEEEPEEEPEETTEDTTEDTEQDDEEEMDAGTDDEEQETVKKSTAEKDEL
Background: Polarisation of emitted light reports the rotation of a fluorescent probe.

In another series the test system is Akt. Briefly: Western blot of cytosolic Hsp90 client protein Akt. Particulars: 30 μM (same concentration). The series is classed as cell-based. On the procedure: (§6) Cell Culture. Cell culture was performed as described in the art.^25 Tetracycline-inducible Hek cells stably overexpressing I477N mutant myocilin were grown and maintained in Dulbecco's Modified Eagle's Medium supplemented with 10% fetal bovine serum (Invitrogen, penicillin (100 units/mL), streptomycin ([…]) and 1% GlutaMAX (Invitrogen) at 37 C and 5% CO2. Stably overexpressing cells were selected for using hygromycin B ([…]) (InvivoGen) and G418 ([…]) (Gibco). I477N myocilin expression was induced with tetracycline ([…]) for 48H prior to drug treatment.
(§7) Inhibitor Treatment. Inhibitors were solubilized in DMSO (Sigma Aldrich), and diluted to documented concentrations. Cells were treated drop wise with inhibitors 24H prior to cell harvest. DMSO concentration was diluted to 1% total cell medium volume.
(§8) Cell Harvest. Cell harvest was performed as previously described.^21 24H after inhibitor treatment, culture medium was removed and cells were washed 2× with ice cold PBS. […]
(§9) Western Blotting. Western blot analysis was performed as previously described.^41 Cell lysates were prepared at identical protein concentrations, as determined by BCA analysis, in 2× Laemmli sample buffer (Bio-Rad) and denatured by boiling for 5 min at 100 C. […]

In a further series the test system is Hsp70. In words: Western blot of Hsp70 levels. The class given is cell-based. Particulars: compared to 17-AAG (5 μM reference). Here is the method:
as §6, §7, §8, §9

The next series concerns I477N mutant myocilin. Briefly: Western blot of I477N mutant myocilin levels in tetracycline inducible HEK cells. The class given is cell-based. Particulars: 30 μM, 24 h, HEK cells over-expressing I477N myocilin. On the procedure:
as §6, §7, §8, §9

A word on the viability: it is the share of living cells, or the viability signal relative to a control. A high value points to less harm to the cells.

Read-outs that look alike come from different tables or passages of the source.

In the case of `NC(=O)c1ccc(-n2cccc2Cc2ccccc2F)cc1N[C@H]1CC[C@H](O)CC1` [Compound 8e, 4-(2-(2-fluorobenzyl)-1H-pyrrol-1-yl)-2-(((1r,4r)-4-hydroxycyclohexyl)amino)benzamide], in the series with PC3-MM2 cells, the F-actin localization entry is reported as “formed sporadic patches in the cytoplasm”. The “integrin α2 localization” value in the series on PC3-MM2 cells is reported as “localized as patches in the cytoplasm”. In addition, the viability at 72 h, 25 µM in [1] and in [2] was greater than 95% throughout. Further, the “migration of PC-3 MM-2 cells” value in the series on PC-3 MM-2 cells is “inhibited migration”. Moreover, the “levels of integrin α2, integrin αL, Syne2, VAMP2, and Rab10” value in [3] was “reduced levels”. Moreover, the Kd on Hsp90α is greater than 100000 nM; in series [4] (apparent Kd, cGrp94 and FITC-GDA, triplicates, ± SEM, read-out: Kd Grp94), 720 ± 140 nM; in [4] (read-out: apparent Kd towards Grp94), roughly 724 nM. In addition, the “migration of MDA-MB-231 cells” value with MDA-MB-231 cells was “inhibited migration”.
For the compound `NC(=O)c1ccc(-n2cccc2Cc2ccccc2O)cc1N[C@H]1CC[C@H](O)CC1` [Compound 8j, 4-(2-(2-hydroxybenzyl)-1H-pyrrol-1-yl)-2-(((1r,4r)-4-hydroxycyclohexyl)amino)benzamide], the Akt maturation result in the series with Akt is “did not affect”. Besides, the Hsp70 levels entry in the series on Hsp70 was “remained unaffected”. Besides, the F-actin localization entry with PC3-MM2 cells is listed as “formed sporadic patches in the cytoplasm”. The “integrin α2 localization” value in the series on PC3-MM2 cells is “localized as patches in the cytoplasm”. For the same compound, the viability at 72 h, 25 µM in series [1] and in series [2] was greater than 95% in each case. In the series on I477N mutant myocilin, the mutant myocilin levels entry was “significant decrease”. For the same compound, the “migration of PC-3 MM-2 cells” value with PC-3 MM-2 cells was “inhibited migration”. For the same compound, the “levels of integrin α2, integrin αL, Syne2, VAMP2, and Rab10” value in [3] is reported as “reduced levels”. In addition, in the series with MDA-MB-231 cells, the “migration of MDA-MB-231 cells” value is listed as “inhibited migration”.

These data come from patent US10975030B2, “Grp94 selective inhibitors and uses thereof” (University of Kansas, priority 2016, dated 2021).
